Results: ChEMBL document CHEMBL1909046, “DrugMatrix in vitro pharmacology data”

Tests used:
[1] = target: T1, B2 bradykinin receptor (Homo sapiens, UniProt P30411); type: cell membranes, Membrane; conditions: chem-1; also: in other assays of this panel Not Active means under 50% inhibition at 10 µM
T1 sequence (P30411 whole entry): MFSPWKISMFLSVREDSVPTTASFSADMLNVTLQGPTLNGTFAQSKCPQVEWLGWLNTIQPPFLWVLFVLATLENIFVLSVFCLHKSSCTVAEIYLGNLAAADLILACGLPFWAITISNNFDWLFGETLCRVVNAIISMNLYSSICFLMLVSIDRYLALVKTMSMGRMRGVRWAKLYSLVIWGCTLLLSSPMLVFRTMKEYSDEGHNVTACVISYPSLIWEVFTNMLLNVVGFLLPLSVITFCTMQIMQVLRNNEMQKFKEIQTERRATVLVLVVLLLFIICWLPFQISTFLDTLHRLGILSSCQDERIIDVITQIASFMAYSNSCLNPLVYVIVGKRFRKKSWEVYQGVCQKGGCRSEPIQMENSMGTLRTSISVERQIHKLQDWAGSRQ

[2] = target: Matrix metalloproteinase-9 (Homo sapiens, UniProt P14780); assay: biochemical; type: cell-based;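 also: inhibition of isolated MMP-9 enzyme activity toward a synthetic peptide substrate, from the DrugMatrix protease screening panel; in other assays of this panel Not Active means under 50% inhibition at 10 µM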
Chain of Matrix metalloproteinase-9 (P14780 whole entry): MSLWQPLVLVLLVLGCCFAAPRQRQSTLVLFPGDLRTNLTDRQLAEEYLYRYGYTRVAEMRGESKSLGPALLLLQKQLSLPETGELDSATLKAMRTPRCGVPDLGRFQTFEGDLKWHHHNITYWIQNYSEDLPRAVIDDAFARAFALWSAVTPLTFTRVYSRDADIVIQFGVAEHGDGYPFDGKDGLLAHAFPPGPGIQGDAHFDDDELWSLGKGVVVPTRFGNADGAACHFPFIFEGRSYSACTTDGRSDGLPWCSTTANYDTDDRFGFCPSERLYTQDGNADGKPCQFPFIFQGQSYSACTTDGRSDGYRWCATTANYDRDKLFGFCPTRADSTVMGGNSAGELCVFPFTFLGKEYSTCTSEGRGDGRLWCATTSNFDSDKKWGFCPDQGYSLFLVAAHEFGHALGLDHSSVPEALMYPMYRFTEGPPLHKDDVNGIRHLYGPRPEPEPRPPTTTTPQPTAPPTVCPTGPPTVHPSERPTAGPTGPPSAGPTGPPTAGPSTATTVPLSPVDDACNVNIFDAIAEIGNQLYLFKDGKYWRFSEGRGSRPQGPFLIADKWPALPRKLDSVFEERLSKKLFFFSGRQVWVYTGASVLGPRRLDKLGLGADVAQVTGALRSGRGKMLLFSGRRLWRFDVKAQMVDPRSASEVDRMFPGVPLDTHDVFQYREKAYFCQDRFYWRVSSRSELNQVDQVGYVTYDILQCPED

[3] = target: Mitogen-activated protein kinase 1 (Homo sapiens, UniProt P28482); assay: DRUGMATRIX: Protein Serine/Threonine Kinase, ERK2 enzyme inhibition (substrate: Myelin Basic Protein); parameters: species or system Escherichia coli; conditions: Not Active = under 50% inhibition at 10 µM
Chain of Mitogen-activated protein kinase 1 (P28482 whole entry): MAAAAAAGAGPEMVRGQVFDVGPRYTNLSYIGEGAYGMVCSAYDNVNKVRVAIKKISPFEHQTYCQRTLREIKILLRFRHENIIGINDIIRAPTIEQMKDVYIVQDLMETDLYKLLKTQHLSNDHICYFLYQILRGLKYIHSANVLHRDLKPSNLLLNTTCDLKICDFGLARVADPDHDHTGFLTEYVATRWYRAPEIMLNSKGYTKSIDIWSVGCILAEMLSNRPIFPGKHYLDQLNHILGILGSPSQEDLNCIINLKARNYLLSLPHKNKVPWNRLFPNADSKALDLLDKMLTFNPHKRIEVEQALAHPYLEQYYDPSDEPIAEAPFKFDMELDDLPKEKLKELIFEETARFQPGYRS

[4] = DRUGMATRIX: Imidazoline I2, Central radioligand binding (ligand: [3H] Idazoxan); type: cell membranes, Rattus norvegicus, Wistar, Cerebral cortex, Membrane; conditions: Not Active = under 50% inhibition at 10 µM
[5] = target: T2, Receptor-type tyrosine-protein phosphatase C (Homo sapiens, UniProt P08575); parameters: species or system Escherichia coli;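 also: inhibition of CD45 enzyme activity measured using DiFMUP as substrate; in other assays of this panel Not Active means under 50% inhibition at 10 µM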
T2 sequence (P08575 whole entry): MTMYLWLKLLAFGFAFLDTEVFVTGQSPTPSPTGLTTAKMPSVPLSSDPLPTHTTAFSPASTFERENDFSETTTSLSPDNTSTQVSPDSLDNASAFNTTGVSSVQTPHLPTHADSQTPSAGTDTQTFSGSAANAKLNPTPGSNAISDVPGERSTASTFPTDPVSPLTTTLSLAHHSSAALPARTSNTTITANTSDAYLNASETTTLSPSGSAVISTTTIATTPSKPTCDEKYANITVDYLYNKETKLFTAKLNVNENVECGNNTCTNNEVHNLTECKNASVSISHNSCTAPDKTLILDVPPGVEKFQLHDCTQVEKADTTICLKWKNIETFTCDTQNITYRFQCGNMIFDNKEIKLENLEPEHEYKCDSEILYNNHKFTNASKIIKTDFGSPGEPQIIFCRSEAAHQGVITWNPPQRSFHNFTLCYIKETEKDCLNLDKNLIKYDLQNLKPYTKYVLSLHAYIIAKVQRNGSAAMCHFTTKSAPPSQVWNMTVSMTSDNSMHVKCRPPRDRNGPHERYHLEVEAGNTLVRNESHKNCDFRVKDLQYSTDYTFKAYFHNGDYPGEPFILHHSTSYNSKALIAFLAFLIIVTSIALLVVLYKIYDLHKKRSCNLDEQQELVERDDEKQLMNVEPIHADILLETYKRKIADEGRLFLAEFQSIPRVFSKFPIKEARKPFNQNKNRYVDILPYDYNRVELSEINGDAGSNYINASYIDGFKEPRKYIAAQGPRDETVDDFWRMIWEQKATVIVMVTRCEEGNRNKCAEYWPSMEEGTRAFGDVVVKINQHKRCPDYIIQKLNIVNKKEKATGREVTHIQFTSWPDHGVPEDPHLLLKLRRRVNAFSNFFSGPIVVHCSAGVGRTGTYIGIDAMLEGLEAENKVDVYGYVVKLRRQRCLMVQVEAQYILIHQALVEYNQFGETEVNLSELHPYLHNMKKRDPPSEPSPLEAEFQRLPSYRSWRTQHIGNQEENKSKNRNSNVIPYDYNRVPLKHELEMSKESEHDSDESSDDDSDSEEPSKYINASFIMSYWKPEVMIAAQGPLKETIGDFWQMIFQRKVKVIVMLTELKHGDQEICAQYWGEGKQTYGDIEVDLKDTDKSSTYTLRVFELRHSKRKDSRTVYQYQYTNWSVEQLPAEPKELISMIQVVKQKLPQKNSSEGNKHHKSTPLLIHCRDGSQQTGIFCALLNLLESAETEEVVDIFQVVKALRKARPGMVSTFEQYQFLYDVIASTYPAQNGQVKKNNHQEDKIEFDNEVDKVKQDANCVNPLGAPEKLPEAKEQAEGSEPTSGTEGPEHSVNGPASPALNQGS

[6] = target: Sodium-dependent noradrenaline transporter (Homo sapiens, UniProt P23975); assay: DRUGMATRIX: Norepinephrine Transporter radioligand binding (ligand: [125I] RTI-55); type: cell membranes, MDCK, Membrane; conditions: Not Active = under 50% inhibition at 10 µM
Chain of Sodium-dependent noradrenaline transporter (P23975 whole entry): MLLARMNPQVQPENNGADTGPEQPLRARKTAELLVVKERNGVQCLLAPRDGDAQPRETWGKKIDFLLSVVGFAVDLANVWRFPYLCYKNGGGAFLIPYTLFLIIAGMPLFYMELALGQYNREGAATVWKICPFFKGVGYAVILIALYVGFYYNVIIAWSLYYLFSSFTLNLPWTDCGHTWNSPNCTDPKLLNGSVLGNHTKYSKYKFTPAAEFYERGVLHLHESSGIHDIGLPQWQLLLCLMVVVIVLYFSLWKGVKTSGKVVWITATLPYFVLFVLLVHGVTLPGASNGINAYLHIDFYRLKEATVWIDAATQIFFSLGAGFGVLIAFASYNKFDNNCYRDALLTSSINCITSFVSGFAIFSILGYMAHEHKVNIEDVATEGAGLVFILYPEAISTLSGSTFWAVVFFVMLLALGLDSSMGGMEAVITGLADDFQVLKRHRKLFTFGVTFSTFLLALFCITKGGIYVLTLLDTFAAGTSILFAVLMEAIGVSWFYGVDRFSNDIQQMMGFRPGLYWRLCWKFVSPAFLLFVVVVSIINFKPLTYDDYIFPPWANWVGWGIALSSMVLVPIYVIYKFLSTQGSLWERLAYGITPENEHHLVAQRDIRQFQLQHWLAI

[7] = target: T3, Neuropeptide Y receptor type 1 (Homo sapiens, UniProt P25929); type: cell membranes, Membrane; conditions: sk-n-mc; also: in other assays of this panel Not Active means under 50% inhibition at 10 µM
T3 sequence (P25929 whole entry): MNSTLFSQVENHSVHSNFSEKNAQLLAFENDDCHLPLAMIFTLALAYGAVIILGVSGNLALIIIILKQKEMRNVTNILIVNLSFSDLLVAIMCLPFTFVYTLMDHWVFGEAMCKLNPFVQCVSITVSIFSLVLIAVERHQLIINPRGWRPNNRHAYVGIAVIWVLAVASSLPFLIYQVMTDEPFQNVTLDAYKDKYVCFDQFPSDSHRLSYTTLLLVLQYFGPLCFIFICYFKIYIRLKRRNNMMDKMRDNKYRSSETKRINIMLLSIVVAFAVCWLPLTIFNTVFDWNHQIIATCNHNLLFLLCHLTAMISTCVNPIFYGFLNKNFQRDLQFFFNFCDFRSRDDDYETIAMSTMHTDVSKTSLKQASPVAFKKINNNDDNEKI

## C[C@](N)(Cc1ccc(O)c(O)c1)C(=O)O [METHYLDOPA]
[1]
  IC50: Not Active
[2]
  IC50: Not Active
[3]
  IC50: Not Active
[4]
  IC50: Not Active
  Ki: Not Active
[5]
  IC50: Not Active
[6]; mdck
  IC50: Not Active
[7]
  IC50: Not Active

## C[C@]12CCC(=O)C=C1CC[C@@H]1[C@@H]2CC[C@@]2(C)[C@H]1CC[C@]2(C)O [METHYLTESTOSTERONE]
[1]
  IC50: Not Active
[2]
  IC50: Not Active
[3]
  IC50: Not Active
[4]
  IC50: Not Active
  Ki: Not Active
[5]
  IC50: Not Active
[6]; mdck
  IC50: Not Active
[7]
  IC50: Not Active

## Cc1ccccc1N1C(=O)c2cc(S(N)(=O)=O)c(Cl)cc2NC1C (stereo unspecified) [METOLAZONE]
[1]
  IC50: Not Active
[2]
  IC50: Not Active
[3]
  IC50: Not Active
[4]
  IC50: Not Active
  Ki: Not Active
[5]
  IC50: Not Active
[6]; mdck
  IC50: Not Active
[7]
  IC50: Not Active

## COCCc1ccc(OCC(O)CNC(C)C)cc1 (stereo unspecified) [METOPROLOL]
[1]
  IC50: Not Active
[2]
  IC50: Not Active
[3]
  IC50: Not Active
[4]
  IC50: Not Active
  Ki: Not Active
[5]
  IC50: Not Active
[6]; mdck
  IC50: Not Active
[7]
  IC50: Not Active

## CCn1cc(C(=O)O)c(=O)c2cc(F)c(N3CCNCC3)cc21 [NORFLOXACIN]
[1]
  IC50: Not Active
[2]
  IC50: Not Active
[3]
  IC50: Not Active
[4]
  IC50: Not Active
  Ki: Not Active
[5]
  IC50: Not Active
[6]; mdck
  IC50: Not Active
[7]
  IC50: Not Active

## NC1=NC(=O)C(c2ccccc2)O1 (stereo unspecified) [PEMOLINE]
[1]
  IC50: Not Active
[2]
  IC50: Not Active
[3]
  IC50: Not Active
[4]
  IC50: Not Active
  Ki: Not Active
[5]
  IC50: Not Active
[6]; mdck
  IC50: Not Active
[7]
  IC50: Not Active

## Nc1nc2c(ncn2CCC(CO)CO)c(=O)[nH]1 [PENCICLOVIR]
[1]
  IC50: Not Active
[2]
  IC50: Not Active
[3]
  IC50: Not Active
[4]
  IC50: Not Active
  Ki: Not Active
[5]
  IC50: Not Active
[6]; mdck
  IC50: Not Active
[7]
  IC50: Not Active

## C=C(C)C1(O)OC(=O)C=C1OC (stereo unspecified) [PENICILLIC ACID]
[1]
  IC50: Not Active
[2]
  IC50: Not Active
[3]
  IC50: Not Active
[4]
  IC50: Not Active
  Ki: Not Active
[5]
  IC50: Not Active
[6]; mdck
  IC50: Not Active
[7]
  IC50: Not Active

## CC1(C)S[C@@H]2[C@H](NC(=O)Cc3ccccc3)C(=O)N2[C@H]1C(=O)O [PENICILLIN G]
[1]
  IC50: Not Active
[2]
  IC50: Not Active
[3]
  IC50: Not Active
[4]
  IC50: Not Active
  Ki: Not Active
[5]
  IC50: Not Active
[6]; mdck
  IC50: Not Active
[7]
  IC50: Not Active

## CCCN1C[C@H](CSC)C[C@@H]2c3cccc4[nH]cc(c34)C[C@H]21 [PERGOLIDE]
[1]
  IC50: Not Active
[2]
  IC50: Not Active
[3]
  IC50: Not Active
[4]; read-out: IC50
  IC50: 3080 nM
[4]; read-out: Ki
  Ki: 2050 nM
[5]
  IC50: Not Active
[6]; mdck
  IC50: Not Active
[7]
  IC50: Not Active

## C1CCC(C(CC2CCCCN2)C2CCCCC2)CC1 (stereo unspecified) [PERHEXILINE]
[1]
  IC50: Not Active
[2]
  IC50: Not Active
[3]
  IC50: Not Active
[4]
  IC50: Not Active
  Ki: Not Active
[5]
  IC50: Not Active
[6]; read-out: IC50
  IC50: 3290 nM
[6]; read-out: Ki
  Ki: 3270 nM
[7]
  IC50: Not Active

## CCOc1ccc(NC(C)=O)cc1 [PHENACETIN]
[1]
  IC50: Not Active
[2]
  IC50: Not Active
[3]
  IC50: Not Active
[4]
  IC50: Not Active
  Ki: Not Active
[5]
  IC50: Not Active
[6]; mdck
  IC50: Not Active
[7]
  IC50: Not Active

## Cc1ccc(N(CC2=NCCN2)c2cccc(O)c2)cc1 [PHENTOLAMINE]
[1]
  IC50: Not Active
[2]
  IC50: Not Active
[3]
  IC50: Not Active
[4]; read-out: IC50
  IC50: 58 nM
[4]; read-out: Ki
  Ki: 39 nM
[5]
  IC50: Not Active
[6]; mdck
  IC50: Not Active
[7]
  IC50: Not Active

## CNNCc1ccc(C(=O)NC(C)C)cc1 [PROCARBAZINE]
[1]
  IC50: Not Active
[2]
  IC50: Not Active
[3]
  IC50: Not Active
[4]
  IC50: Not Active
  Ki: Not Active
[5]
  IC50: Not Active
[6]; mdck
  IC50: Not Active
[7]
  IC50: Not Active

## CN(C)CCCN1c2ccccc2Sc2ccccc21 [PROMAZINE]
[1]
  IC50: Not Active
[2]
  IC50: Not Active
[3]
  IC50: Not Active
[4]; read-out: IC50
  IC50: 1100 nM
[4]; read-out: Ki
  Ki: 732 nM
[5]
  IC50: Not Active
[6]; read-out: IC50
  IC50: 13 nM
[6]; read-out: Ki
  Ki: 13 nM
[7]
  IC50: Not Active

## CC(O)CO (stereo unspecified) [PROPYLENE GLYCOL]
[1]
  IC50: Not Active
[2]
  IC50: Not Active
[3]
  IC50: Not Active
[4]
  IC50: Not Active
  Ki: Not Active
[5]
  IC50: Not Active
[6]; mdck
  IC50: Not Active
[7]
  IC50: Not Active

## CADMIUM ACETATE
[1]
  IC50: Not Active
  Ki: Not Active
[2]
  IC50: Not Active
  Ki: Not Active
[3]
  IC50: Not Active
  Ki: Not Active
[4]
  IC50: Not Active
  Ki: Not Active
[5]
  IC50: Not Active
  Ki: Not Active
[6]; mdck
  IC50: Not Active
  Ki: Not Active
[7]
  IC50: Not Active
  Ki: Not Active

## LEAD (II) ACETATE
[1]
  IC50: Not Active
  Ki: Not Active
[2]
  IC50: Not Active
  Ki: Not Active
[3]
  IC50: Not Active
  Ki: Not Active
[4]
  IC50: Not Active
  Ki: Not Active
[5]
  IC50: Not Active
  Ki: Not Active
[6]; mdck
  IC50: Not Active
  Ki: Not Active
[7]
  IC50: Not Active
  Ki: Not Active

## LIPOPOLYSACCHARIDE E. COLI O55:B5
[1]
  IC50: Not Active
  Ki: Not Active
[2]
  IC50: Not Active
  Ki: Not Active
[3]; read-out: IC50
  IC50: 321 nM
[4]
  IC50: Not Active
  Ki: Not Active
[5]
  IC50: Not Active
  Ki: Not Active
[6]; mdck
  IC50: Not Active
  Ki: Not Active
[7]
  IC50: Not Active
  Ki: Not Active
